The source of these data is ChEMBL document CHEMBL4184204, “Fusarithioamide B, a new benzamide derivative from the endophytic fungus Fusarium chlamydosporium with potent cytotoxic and antimicrobial activities” (Bioorg Med Chem, 2018).

Molecules are shown by their SMILES. ≈ marks a conversion by molar mass, not a printed value.

In assay [1] the test system is Trichophyton rubrum. As to the kind of experiment: Antifungal activity against Trichophyton rubrum AUMC 1804 by microdilution method. Type of assay: functional. On the technique in general: In broth dilution the organism is exposed to a series of concentrations in liquid medium.
For assay [2], the system named is Geotrichum candidum. As to the kind of experiment: Antifungal activity against Geotrichum candidum AUMC 226 assessed as diameter of inhibition zone at 5 ug/disc after 48 hrs by agar disc diffusion method. The class given is functional. The following applies: AUMC 226, 48 h, read-out: DIZ. (In general: Agar diffusion results depend on both activity and mobility in agar.)

Assay [3] relates to Candida albicans. The experiment in a line: Antifungal activity against Candida albicans AUMC 418 by microdilution method. The class given is functional.
Assay [4] relates to Geotrichum candidum. The experiment in a line: Antifungal activity against Geotrichum candidum AUMC 226 by microdilution method. The class given is functional.
Assay [5] relates to Candida albicans. The experiment in a line: Antifungal activity against Candida albicans AUMC 418 assessed as diameter of inhibition zone at 5 ug/disc after 48 hrs by agar disc diffusion method. Type of assay: functional. The following applies: AUMC 418, 48 h, read-out: DIZ.
The test system of assay [6] is Trichophyton rubrum. The experiment in a line: Antifungal activity against Trichophyton rubrum AUMC 1804 assessed as diameter of inhibition zone at 5 ug/disc after 48 hrs by agar disc diffusion method. Type of assay: functional. The conditions noted are these: AUMC 1804, 48 h, read-out: DIZ.
For assay [7], the system named is Bacillus cereus. As to the kind of experiment: Antibacterial activity against Bacillus cereus AUMC B-5 assessed as diameter of inhibition zone at 10 ug/disc after 24 hrs by agar disc diffusion method. Type of assay: functional. The following applies: AUMC B-5, 24 h, read-out: DIZ.
Assay [8] deals with Serratia marcescens. The experiment in a line: Antibacterial activity against Serratia marcescens AUMC B-55 assessed as diameter of inhibition zone at 10 ug/disc after 24 hrs by agar disc diffusion method. Type of assay: functional. The following applies: AUMC B-55, 24 h, read-out: DIZ.
Assay [9] deals with Staphylococcus aureus. The experiment in a line: Antibacterial activity against Staphylococcus aureus AUMC B-54 assessed as diameter of inhibition zone at 10 ug/disc after 24 hrs by agar disc diffusion method. The following applies: AUMC B-54, 24 h, read-out: DIZ.
The subject of assay [10] is Serratia marcescens. As to the kind of experiment: Antibacterial activity against Serratia marcescens AUMC B-55 by microdilution method. Type of assay: functional.
The test system of assay [11] is Escherichia coli. As to the kind of experiment: Antibacterial activity against Escherichia coli AUMC B-53 assessed as diameter of inhibition zone at 10 ug/disc after 24 hrs by agar disc diffusion method. The conditions noted are these: AUMC B-53, 24 h, read-out: DIZ.
For assay [12], the system named is Pseudomonas aeruginosa. As to the kind of experiment: Antibacterial activity against Pseudomonas aeruginosa AUMC B-73 assessed as diameter of inhibition zone at 10 ug/disc after 24 hrs by agar disc diffusion method. The conditions noted are these: AUMC B-73, 24 h, read-out: DIZ.
Assay [13] deals with Bacillus cereus. The experiment in a line: Antibacterial activity against Bacillus cereus AUMC B-5 by microdilution method. Type of assay: functional.
The subject of assay [14] is Escherichia coli. As to the kind of experiment: Antibacterial activity against Escherichia coli AUMC B-53 assessed as diameter of inhibition zone after 24 hrs by agar disc diffusion method. Type of assay: functional.
Assay [15] concerns Pseudomonas aeruginosa. As to the kind of experiment: Antibacterial activity against Pseudomonas aeruginosa AUMC B-73 by microdilution method. The class given is functional.
For assay [16], the system named is Pseudomonas aeruginosa. As to the kind of experiment: Antibacterial activity against Pseudomonas aeruginosa AUMC B-73 assessed as diameter of inhibition zone after 24 hrs by agar disc diffusion method. The class given is functional.
The next assay has as its system BT-549. The experiment in a line: Cytotoxicity against human BT549 cells after 48 hrs by neutral red dye based assay. The class given is functional, cell-based. The following applies: BT-549, 48 h.
Another assay concerns KB. The experiment in a line: Cytotoxicity against human KB cells after 48 hrs by neutral red dye based assay. The class given is functional, cell-based.
Assay [17] deals with Staphylococcus aureus. The experiment in a line: Antibacterial activity against Staphylococcus aureus AUMC B-54 by microdilution method. The class given is functional.
A further assay concerns SK-OV-3. As to the kind of experiment: Cytotoxicity against human SKOV3 cells after 48 hrs by neutral red dye based assay. The conditions noted are these: SK-OV-3, 48 h. The class given is functional, cell-based.
The subject of assay [18] is Serratia marcescens. As to the kind of experiment: Antibacterial activity against Serratia marcescens AUMC B-55 assessed as diameter of inhibition zone after 24 hrs by agar disc diffusion method. The class given is functional.
The subject of a further assay is HCT-116. The experiment in a line: Cytotoxicity against human HCT116 cells after 48 hrs by neutral red dye based assay. The class given is functional, cell-based. The conditions noted are these: HCT-116, 48 h.
A further assay deals with SK-MEL. The experiment in a line: Cytotoxicity against human SK-MEL cells after 48 hrs by neutral red dye based assay. Type of assay: functional, cell-based.
Assay [19] relates to Geotrichum candidum. As to the kind of experiment: Antifungal activity against Geotrichum candidum AUMC 226 assessed as diameter of inhibition zone after 48 hrs by agar disc diffusion method. Type of assay: functional.
The subject of assay [20] is Escherichia coli. The experiment in a line: Antibacterial activity against Escherichia coli AUMC B-53 by microdilution method. Type of assay: functional.
Assay [21] relates to Candida albicans. The experiment in a line: Antifungal activity against Candida albicans AUMC 418 assessed as diameter of inhibition zone after 48 hrs by agar disc diffusion method. The class given is functional.
A further assay concerns MCF7. As to the kind of experiment: Cytotoxicity against human MCF7 cells after 48 hrs by neutral red dye based assay. Type of assay: functional, cell-based. The conditions noted are these: MCF7, 48 h.
In assay [22] the test system is Staphylococcus aureus. The experiment in a line: Antibacterial activity against Staphylococcus aureus AUMC B-54 assessed as diameter of inhibition zone after 24 hrs by agar disc diffusion method. Type of assay: functional.
For assay [23], the system named is Trichophyton rubrum. The experiment in a line: Antifungal activity against Trichophyton rubrum AUMC 1804 assessed as diameter of inhibition zone after 48 hrs by agar disc diffusion method. The class given is functional.
Assay [24] has as its system Bacillus cereus. As to the kind of experiment: Antibacterial activity against Bacillus cereus AUMC B-5 assessed as diameter of inhibition zone after 24 hrs by agar disc diffusion method. Type of assay: functional.

Regarding `Clc1ccccc1C(c1ccccc1)(c1ccccc1)n1ccnc1` [CLOTRIMAZOLE], the MIC (in general, the least concentration at which growth counts as inhibited) against Trichophyton rubrum [1] came out at 8.1 µg/mL (≈ 23.5 µM); against Candida albicans [3], 2.8 µg/mL (≈ 8.12 µM); in the assay with Geotrichum candidum [4] it was 4.9 µg/mL (≈ 14.2 µM). Also, the zone of inhibition at 5 µg/disc is 20.1 mm with Geotrichum candidum [2], 17.9 mm in the assay on Candida albicans [5] and 15.5 mm in the assay with Trichophyton rubrum [6].

`O=C(O)c1cn(C2CC2)c2cc(N3CCNCC3)c(F)cc2c1=O` [CIPROFLOXACIN]: the zone of inhibition at 10 µg/disc came to 21.2 mm in the assay on Bacillus cereus [7]; 30.1 mm with Serratia marcescens [8]; 15.3 mm in the assay on Staphylococcus aureus [9]; 25.6 mm in the assay with Escherichia coli [11]; 14.8 mm with Pseudomonas aeruginosa [12]. The figures for the MIC in the assay on Serratia marcescens [10] and against Bacillus cereus [13] were 9.1 µg/mL (≈ 27.5 µM) and 2.9 µg/mL (≈ 8.75 µM), respectively.

Consider `CC1NC(=O)C(C)(CC(=O)O)NC(CN)OC(CCS)NC(=O)c2ccccc2NC1=O` (stereo not given), for which the MIC was found to be 5.2 µg/mL (≈ 11.1 µM) with Trichophyton rubrum [1]; 68.4 µg/mL (≈ 146 µM) against Pseudomonas aeruginosa [15]; 1.9 µg/mL (≈ 4.06 µM) in the assay with Candida albicans [3]; 3.1 µg/mL (≈ 6.63 µM) against Staphylococcus aureus [17]; 6.9 µg/mL (≈ 14.8 µM) in the assay on Geotrichum candidum [4]; 3.7 µg/mL (≈ 7.91 µM) with Escherichia coli [20]. Further, the figures for the MIC with Serratia marcescens [10] and with Bacillus cereus [13] were 92.1 µg/mL (≈ 197 µM) and 2.5 µg/mL (≈ 5.35 µM), respectively. Besides, the “diameter of the inhibition zone (DIZ)” value came to 25.1 mm in the assay with Escherichia coli [14]; 7.2 mm in the assay with Pseudomonas aeruginosa [16]; 4.5 mm with Serratia marcescens [18]; 28.9 mm in the assay with Geotrichum candidum [19]; 14.5 mm in the assay with Candida albicans [21]; 17.4 mm with Staphylococcus aureus [22]. Further, the “diameter of the inhibition zone (DIZ)” value is given as 40.3 mm with Trichophyton rubrum [23] and 23 mm in the assay with Bacillus cereus [24]. Further, the IC50 (commonly the point on the concentration scale where inhibition reaches its midpoint) with BT-549 is 90 nM; in the assay with KB, 6900 nM; in the assay with SK-OV-3, 1230 nM; in the assay with HCT-116 it was 590 nM; in the assay on SK-MEL, 11200 nM; with MCF7 it was 210 nM.

Take `COc1cccc2c1C(=O)c1c(O)c3c(c(O)c1C2=O)C[C@@](O)(C(=O)CO)C[C@@H]3O[C@H]1C[C@H](N)[C@H](O)[C@H](C)O1` [DOXORUBICIN]: the IC50 worked out at 45 nM with BT-549; 24 nM with KB; 321 nM in the assay with SK-OV-3; 240 nM with HCT-116; 159 nM in the assay on SK-MEL.
